Assay results as given in paper PMC4890535, “On the Kinetic and Allosteric Regulatory Properties of the ADP-Glucose Pyrophosphorylase from Rhodococcus jostii: An Approach to Evaluate Glycogen Metabolism in Oleaginous Bacteria” (Frontiers in Microbiology, 2016).
Where two headings read alike, the source gives them in different places.

What was measured:
[1] = biological target: T1, R. jostii ADP-Glc PPase (RjoGlgC) (Rhodococcus jostii, UniProt Q0S3Y4); experiment: colorimetric Pi release (Malachite Green) assay of ADP-Glc synthesis, Hill fit; type: biochemical
T1 construct: gene glgC; full length, N-terminal His-tag (pET28c), E. coli BL21(DE3) with GroEL/GroES; start GTG changed to ATG, primer encodes MRSQPHV; homotetramer 190 kDa
T1 sequence (Q0S3Y4 1-404): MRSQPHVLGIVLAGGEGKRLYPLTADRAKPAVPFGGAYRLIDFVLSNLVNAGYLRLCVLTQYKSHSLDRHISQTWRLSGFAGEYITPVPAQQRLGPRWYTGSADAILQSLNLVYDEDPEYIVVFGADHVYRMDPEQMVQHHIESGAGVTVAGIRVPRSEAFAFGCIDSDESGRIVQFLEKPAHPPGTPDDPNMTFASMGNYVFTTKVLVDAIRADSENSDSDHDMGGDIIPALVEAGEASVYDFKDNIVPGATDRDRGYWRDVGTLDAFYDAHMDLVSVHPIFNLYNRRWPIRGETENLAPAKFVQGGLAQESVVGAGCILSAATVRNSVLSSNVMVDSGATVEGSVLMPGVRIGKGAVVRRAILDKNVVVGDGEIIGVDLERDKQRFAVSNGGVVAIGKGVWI
Text: colorimetric Pi release (Malachite Green) assay of ADP-Glc synthesis, Hill fit on R. jostii ADP-Glc PPase (RjoGlgC)

[2] = biological target: T1, R. jostii ADP-Glc PPase (RjoGlgC); experiment: as above; type: biochemical; conditions: no activator; co-substrate ATP; 5 mM MgCl2, pH 8.0, 37°C; read-out: S0.5
[3] = substrate: O=P(O)(O)O[C@H]1O[C@H](CO)[C@@H](O)[C@H](O)[C@H]1O; experiment: as above; type: biochemical, Rhodococcus jostii; conditions: no activator, co-substrate ATP saturating, 5 mM MgCl2, pH 8.0, 37°C
[4] = substrate: Nc1ncnc2c1ncn2[C@@H]1O[C@H](COP(=O)(O)OP(=O)(O)OP(=O)(O)O)[C@@H](O)[C@H]1O; experiment: as above; type: biochemical, Rhodococcus jostii; conditions: no activator, co-substrate Glc-1P saturating, 5 mM MgCl2, pH 8.0, 37°C
[5] = biological target: the molecule itself; experiment: SEC; Superdex 200 size exclusion chromatography of the purified enzyme; data not shown
[6] = allosteric activator; 5 mM MgCl2, ATP and Glc-1P, pH 8.0, 37°C; read-out: A0.5

Question: For `O=P(O)(O)OC[C@H]1OC(O)(CO)[C@@H](O)[C@@H]1O` (stereo partly drawn) [Fru-6P], which EC50 [1, 6] is on record?
Answer: 2200 ± 100 µM

Question: `O=P(O)(O)OC[C@H]1OC(O)[C@H](O)[C@@H](O)[C@@H]1O` (stereo partly drawn) [Glc-6P] was tested. Which EC50 ([1]; read-out: A0.5; allosteric activator; 5 mM MgCl2, ATP and Glc-1P, pH 8.0, 37°C) did it give?
Answer: 88 ± 5 µM

Question: For `N[C@H]1[C@@H](OP(=O)(O)O)O[C@H](CO)[C@@H](O)[C@@H]1O` [GlcN-1P], which Km [2] is on record?
Answer: > 6 mM

Question: How did the EC50 [1, 6] turn out when `O=P(O)(O)OC[C@H]1OC(O)[C@@H](O)[C@@H](O)[C@@H]1O` (stereo partly drawn) [Man-6P] was run?
Answer: 56 ± 5 µM

Question: For `C=C(OP(=O)(O)O)C(=O)O` [PEP], which EC50 ([1]; read-out: A0.5) is on record?
Answer: 300 ± 200 µM

Question: `O=P(O)(O)OC[C@H]1OC(O)[C@H](O)[C@@H]1O` (stereo partly drawn) [Rib-5P] was tested. Which EC50 [1, 6] did it give?
Answer: 4000 ± 500 µM

B1: ADP-glucose pyrophosphorylase from Rhodococcus jostii RHA1 (enzyme, UniProt Q0S3Y4 1-404, looked up)
chain: MRSQPHVLGIVLAGGEGKRLYPLTADRAKPAVPFGGAYRLIDFVLSNLVNAGYLRLCVLTQYKSHSLDRHISQTWRLSGFAGEYITPVPAQQRLGPRWYTGSADAILQSLNLVYDEDPEYIVVFGADHVYRMDPEQMVQHHIESGAGVTVAGIRVPRSEAFAFGCIDSDESGRIVQFLEKPAHPPGTPDDPNMTFASMGNYVFTTKVLVDAIRADSENSDSDHDMGGDIIPALVEAGEASVYDFKDNIVPGATDRDRGYWRDVGTLDAFYDAHMDLVSVHPIFNLYNRRWPIRGETENLAPAKFVQGGLAQESVVGAGCILSAATVRNSVLSSNVMVDSGATVEGSVLMPGVRIGKGAVVRRAILDKNVVVGDGEIIGVDLERDKQRFAVSNGGVVAIGKGVWI
notes: ADP-glucose pyrophosphorylase (EC 2.7.7.27), product of glgC of Rhodococcus jostii RHA1; gene of 1,215 bp, theoretical molecular mass 43.85 kDa; amplified with primers from the initiation codon (changed from GTG to ATG) to downstream of the stop codon; Homotetramer by size exclusion chromatography; also called R. jostii ADP-Glc PPase; ADP-Glc PPase; source: E. coli BL21 (DE3) harboring pGro7 …
Question: Which K0.5 [3] does the source give for B1 here?
Answer: 1.8 ± 0.2 mM

Question: And the K0.5 [4]?
Answer: 1.2 ± 0.1 mM

Question: What about the “stoichiometry N” value [5] of the same molecule?
Answer: 4
